{"source": "patent US9511045B2", "about": "(UNIVERSITE D'AUVERGNE CLERMONT I, priority 2010, dated 2016)", "test_system": "Male Sprague-Dawley rats", "details": "72 hours after IP injection of oxaliplatin", "description": "Male Sprague-Dawley rats (Charles River Lab, France), weighing 175 to 200 grams, were placed in a cage with food and water ad libitum, in a temperature-controlled environment at 22° C. with a 12 h/12 h day/night cycle. The experiments were conducted under blind conditions in a calm room by the same experimenter, while taking care to comply with the regulations on animal experimentation.\nThis low-temperature immersion test made it possible to measure the hypersensitivity to cold in the animals. The bottom third of the rat's tail was immersed in a temperature-controlled bath 10° C. until it was removed or until the “cut-off” set at 30 seconds (Necker and Hellon. 1978 Pain. 4: 231-242).\nThe experimental data was analyzed using the software program Sigma STAT, version 3.0 for Windows (STAT32 Software Inc., San Diego, Calif.). The kinetics of the reaction times to the temperature-based stimulation were analyzed using a two-factor variance analysis followed by a multiple comparison test to study the change over time. […] The significance threshold was P<0.05."}
{"smiles": "O=C(O)C(=O)O.[NH-][C@@H]1CCCC[C@H]1[NH-].[Pt+2]", "note": "[oxaliplatin]", "values": [{"measurement": "effect on cold sensitivity threshold (10° C.)", "setting": "FIG. 1", "result": "reduced the cold sensitivity threshold"}, {"measurement": "time after which the rat removed its tail", "setting": "tail immersed in water at 10° C., untreated rat around 12 seconds, cut-off 30 seconds", "result": 7, "unit": "s"}]}
